Target: ATP-dependent translocase ABCB1 (Homo sapiens, UniProt P08183)
Test: TP_TRANSPORTER: transepithelial transport in LLC-GA5-COL150 cells
Type: functional, cell-based
Settings: pig

Chain of ATP-dependent translocase ABCB1 (P08183 whole entry): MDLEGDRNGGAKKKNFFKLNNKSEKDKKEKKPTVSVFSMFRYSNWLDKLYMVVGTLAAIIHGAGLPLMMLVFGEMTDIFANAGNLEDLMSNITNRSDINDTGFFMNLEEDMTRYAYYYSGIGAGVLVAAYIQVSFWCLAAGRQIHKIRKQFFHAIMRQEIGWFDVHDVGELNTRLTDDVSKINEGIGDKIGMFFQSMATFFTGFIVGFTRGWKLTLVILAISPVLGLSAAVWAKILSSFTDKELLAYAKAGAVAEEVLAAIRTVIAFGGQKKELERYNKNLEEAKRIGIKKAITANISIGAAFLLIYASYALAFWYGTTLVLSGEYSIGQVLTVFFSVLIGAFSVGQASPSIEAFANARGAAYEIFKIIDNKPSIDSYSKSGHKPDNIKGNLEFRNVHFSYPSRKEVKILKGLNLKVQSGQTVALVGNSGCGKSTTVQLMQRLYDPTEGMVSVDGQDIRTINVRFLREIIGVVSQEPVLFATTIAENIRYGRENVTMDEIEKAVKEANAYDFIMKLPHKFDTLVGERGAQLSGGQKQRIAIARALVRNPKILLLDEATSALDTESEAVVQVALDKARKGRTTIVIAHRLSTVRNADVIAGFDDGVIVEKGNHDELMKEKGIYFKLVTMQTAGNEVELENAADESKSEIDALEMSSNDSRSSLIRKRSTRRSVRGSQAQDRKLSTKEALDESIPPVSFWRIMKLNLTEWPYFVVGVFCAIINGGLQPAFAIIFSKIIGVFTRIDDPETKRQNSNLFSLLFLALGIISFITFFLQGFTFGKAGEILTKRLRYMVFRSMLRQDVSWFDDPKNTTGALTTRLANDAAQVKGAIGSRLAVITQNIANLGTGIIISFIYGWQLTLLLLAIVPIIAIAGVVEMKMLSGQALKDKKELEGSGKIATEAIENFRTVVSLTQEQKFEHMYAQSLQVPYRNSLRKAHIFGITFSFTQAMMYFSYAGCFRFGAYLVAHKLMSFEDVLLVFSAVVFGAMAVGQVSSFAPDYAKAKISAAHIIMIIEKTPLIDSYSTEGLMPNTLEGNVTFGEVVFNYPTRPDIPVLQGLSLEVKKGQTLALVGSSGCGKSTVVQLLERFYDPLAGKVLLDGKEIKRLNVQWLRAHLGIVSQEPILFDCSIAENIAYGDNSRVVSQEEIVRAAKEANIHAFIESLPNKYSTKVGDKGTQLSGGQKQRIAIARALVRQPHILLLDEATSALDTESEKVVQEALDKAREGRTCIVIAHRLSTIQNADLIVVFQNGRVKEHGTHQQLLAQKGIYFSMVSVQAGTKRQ

Activity: is not a substrate [-]
Structure (SMILES): CS(=O)(=O)O.N=C(N)Nc1ccc(C(=O)Oc2ccc3cc(C(=N)N)ccc3c2)cc1
